# Results taken from ChEMBL document CHEMBL1201862, “PubChem BioAssay data set” (2004).
#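 Following 48 hours of exposure in 96-well plates, responses at five concentrations were used to interpolate endpoints linearly. GI50 = concentration required for 50% inhibition of growth.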 The source made the active and inactive calls. Rule as the data show it: active = GI50 up to about 1.1 µM and inactive = higher.
# Columns and labels:
# Experiment in all cases: NCI tumour cell line growth inhibition, 48 h
# MOLT-4 = tested on: MOLT-4
# Hs-578T = tested on: Hs-578T
# SR = tested on: SR
# OVCAR-3 = tested on: OVCAR-3
# SF-295 = tested on: SF-295
# SN12C = tested on: SN12C
# NCI-H226 = tested on: NCI-H226
# HCT-15 = tested on: HCT-15
# 786-0 = tested on: 786-0
# DU-145 = tested on: DU-145
# SF-268 = tested on: SF-268
# NCI/ADR-RES = tested on: NCI/ADR-RES
# TK-10 = tested on: TK-10
# UO-31 = tested on: UO-31
# MDA-MB-435 = tested on: MDA-MB-435
# HL-60 = tested on: HL-60
# T47D = tested on: T47D
# SNB-19 = tested on: SNB-19
# ACHN = tested on: ACHN
# MDA-MB-231 = tested on: MDA-MB-231
# PC-3 = tested on: PC-3
# OVCAR-5 = tested on: OVCAR-5
# KM12 = tested on: KM12
# HOP-62 = tested on: HOP-62
# UACC-257 = tested on: UACC-257
# BT-549 = tested on: BT-549
# UACC-62 = tested on: UACC-62
# CCRF-CEM = tested on: CCRF-CEM
# A549 = tested on: A549
# SNB-75 = tested on: SNB-75
# EKVX = tested on: EKVX
# SK-MEL-2 = tested on: SK-MEL-2
# NCI-H460 = tested on: NCI-H460
# IGROV-1 = tested on: IGROV-1
# NCI-H522 = tested on: NCI-H522
# SF-539 = tested on: SF-539
# OVCAR-8 = tested on: OVCAR-8
# CAKI-1 = tested on: CAKI-1
# U-251 = tested on: U-251
# SK-OV-3 = tested on: SK-OV-3
# HOP-92 = tested on: HOP-92
# OVCAR-4 = tested on: OVCAR-4
# RPMI-8226 = tested on: RPMI-8226
# SW-620 = tested on: SW-620
# NCI-H23 = tested on: NCI-H23
# SK-MEL-5 = tested on: SK-MEL-5
# K562 = tested on: K562
# COLO 205 = tested on: COLO 205
# SK-MEL-28 = tested on: SK-MEL-28
# HCT-116 = tested on: HCT-116
# HT-29 = tested on: HT-29
# MCF7 = tested on: MCF7
# RXF 393 = tested on: RXF 393
# HCC 2998 = tested on: HCC 2998
# M14 = tested on: M14
# LOX IMVI = tested on: LOX IMVI
# MDA-N = tested on: MDA-N
# Malme-3M = tested on: Malme-3M
smiles,measurement,setting,value
O=C(CC(=O)N1N=C(N(c2ccccc2)c2ccccc2)CC1c1ccccc1)Nc1ccc(Cl)cc1 (configuration not stated),GI50,MOLT-4,> 100 µM (inactive)
same,GI50,Hs-578T,> 100 µM (inactive)
same,GI50,SR,> 100 µM (inactive)
same,GI50,OVCAR-3,> 100 µM (inactive)
same,GI50,SF-295,> 100 µM (inactive)
same,GI50,SN12C,> 100 µM (inactive)
same,GI50,NCI-H226,> 100 µM (inactive)
same,GI50,HCT-15,> 100 µM
same,GI50,786-0,> 100 µM (inactive)
same,GI50,DU-145,> 100 µM (inactive)
same,GI50,SF-268,> 100 µM (inactive)
same,GI50,NCI/ADR-RES,> 100 µM (inactive)
same,GI50,TK-10,> 100 µM (inactive)
same,GI50,UO-31,> 100 µM (inactive)
same,GI50,MDA-MB-435,> 100 µM (inactive)
same,GI50,HL-60,> 100 µM (inactive)
same,GI50,T47D,> 100 µM (inactive)
same,GI50,SNB-19,> 100 µM (inactive)
same,GI50,ACHN,> 100 µM (inactive)
same,GI50,MDA-MB-231,> 100 µM (inactive)
same,GI50,PC-3,> 100 µM (inactive)
same,GI50,OVCAR-5,> 100 µM (inactive)
same,GI50,KM12,> 100 µM (inactive)
same,GI50,HOP-62,> 100 µM (inactive)
same,GI50,UACC-257,> 100 µM (inactive)
same,GI50,BT-549,> 100 µM (inactive)
same,GI50,UACC-62,> 100 µM (inactive)
same,GI50,CCRF-CEM,> 100 µM (inactive)
same,GI50,A549,> 100 µM (inactive)
same,GI50,SNB-75,94 µM (inactive)
same,GI50,EKVX,> 100 µM (inactive)
same,GI50,SK-MEL-2,> 100 µM (inactive)
same,GI50,NCI-H460,> 100 µM (inactive)
same,GI50,IGROV-1,> 100 µM (inactive)
same,GI50,NCI-H522,> 100 µM (inactive)
same,GI50,SF-539,> 100 µM (inactive)
same,GI50,OVCAR-8,> 100 µM (inactive)
same,GI50,CAKI-1,> 100 µM (inactive)
same,GI50,U-251,> 100 µM (inactive)
same,GI50,SK-OV-3,> 100 µM (inactive)
same,GI50,HOP-92,> 100 µM (inactive)
same,GI50,OVCAR-4,> 100 µM (inactive)
same,GI50,RPMI-8226,> 100 µM (inactive)
same,GI50,SW-620,> 100 µM (inactive)
same,GI50,NCI-H23,> 100 µM (inactive)
same,GI50,SK-MEL-5,> 100 µM (inactive)
same,GI50,K562,> 100 µM (inactive)
same,GI50,COLO 205,> 100 µM (inactive)
same,GI50,SK-MEL-28,> 100 µM (inactive)
same,GI50,HCT-116,> 100 µM (inactive)
same,GI50,HT-29,> 100 µM (inactive)
same,GI50,MCF7,> 100 µM (inactive)
same,GI50,RXF 393,> 100 µM (inactive)
same,GI50,HCC 2998,> 100 µM (inactive)
same,GI50,M14,> 100 µM (inactive)
CCCCCCc1ccc(CCCCCCCC(=O)O)o1,GI50,MOLT-4,16.4 µM (inactive)
same,GI50,SR,44 µM (inactive)
same,GI50,OVCAR-3,34.2 µM (inactive)
same,GI50,SF-295,55.5 µM (inactive)
same,GI50,SN12C,> 100 µM (inactive)
same,GI50,NCI-H226,94 µM (inactive)
same,GI50,HCT-15,61.5 µM
same,GI50,786-0,> 100 µM (inactive)
same,GI50,DU-145,> 100 µM (inactive)
same,GI50,NCI/ADR-RES,> 100 µM (inactive)
same,GI50,UO-31,> 100 µM (inactive)
same,GI50,MDA-MB-435,> 100 µM (inactive)
same,GI50,LOX IMVI,> 100 µM (inactive)
same,GI50,T47D,> 100 µM (inactive)
same,GI50,SNB-19,> 100 µM (inactive)
same,GI50,ACHN,62.4 µM (inactive)
same,GI50,PC-3,> 100 µM (inactive)
same,GI50,OVCAR-5,> 100 µM (inactive)
same,GI50,KM12,70.8 µM (inactive)
same,GI50,HOP-62,> 100 µM (inactive)
same,GI50,UACC-257,> 100 µM (inactive)
same,GI50,BT-549,> 100 µM (inactive)
same,GI50,CCRF-CEM,48.5 µM (inactive)
same,GI50,A549,50 µM (inactive)
same,GI50,SNB-75,55.7 µM (inactive)
same,GI50,EKVX,> 100 µM (inactive)
same,GI50,SK-MEL-2,> 100 µM (inactive)
same,GI50,NCI-H460,> 100 µM (inactive)
same,GI50,IGROV-1,> 100 µM (inactive)
same,GI50,SF-539,> 100 µM (inactive)
same,GI50,OVCAR-8,> 100 µM (inactive)
same,GI50,CAKI-1,> 100 µM (inactive)
same,GI50,SK-OV-3,> 100 µM (inactive)
same,GI50,HOP-92,> 100 µM (inactive)
same,GI50,OVCAR-4,> 100 µM (inactive)
same,GI50,RPMI-8226,39.6 µM (inactive)
same,GI50,SW-620,> 100 µM (inactive)
same,GI50,NCI-H23,> 100 µM (inactive)
same,GI50,SK-MEL-5,> 100 µM (inactive)
same,GI50,MDA-N,> 100 µM (inactive)
same,GI50,K562,22.3 µM (inactive)
same,GI50,COLO 205,> 100 µM (inactive)
same,GI50,SK-MEL-28,> 100 µM (inactive)
same,GI50,HCT-116,68.5 µM (inactive)
same,GI50,HT-29,46.2 µM (inactive)
same,GI50,MCF7,44.8 µM (inactive)
same,GI50,HCC 2998,> 100 µM (inactive)
same,GI50,M14,> 100 µM (inactive)
CCOC(=O)c1c(N)n(-c2ccccc2)c(=O)n(-c2ccccc2)c1=O,GI50,MOLT-4,> 100 µM (inactive)
same,GI50,Hs-578T,> 100 µM (inactive)
same,GI50,SR,> 100 µM (inactive)
same,GI50,OVCAR-3,> 100 µM (inactive)
same,GI50,SF-295,> 100 µM (inactive)
same,GI50,SN12C,> 100 µM (inactive)
same,GI50,NCI-H226,> 100 µM (inactive)
same,GI50,HCT-15,> 100 µM
same,GI50,786-0,> 100 µM (inactive)
same,GI50,DU-145,> 100 µM (inactive)
same,GI50,SF-268,> 100 µM (inactive)
same,GI50,TK-10,> 100 µM (inactive)
same,GI50,UO-31,> 100 µM (inactive)
same,GI50,MDA-MB-435,> 100 µM (inactive)
same,GI50,LOX IMVI,> 100 µM (inactive)
same,GI50,HL-60,> 100 µM (inactive)
same,GI50,T47D,> 100 µM (inactive)
same,GI50,SNB-19,> 100 µM (inactive)
same,GI50,ACHN,> 100 µM (inactive)
same,GI50,MDA-MB-231,> 100 µM (inactive)
same,GI50,OVCAR-5,> 100 µM (inactive)
same,GI50,KM12,> 100 µM (inactive)
same,GI50,UACC-257,> 100 µM (inactive)
same,GI50,BT-549,> 100 µM (inactive)
same,GI50,UACC-62,> 100 µM (inactive)
same,GI50,CCRF-CEM,> 10 µM (inactive)
same,GI50,A549,> 100 µM (inactive)
same,GI50,SNB-75,> 100 µM (inactive)
same,GI50,SK-MEL-2,> 100 µM (inactive)
same,GI50,NCI-H460,> 100 µM (inactive)
same,GI50,IGROV-1,> 100 µM (inactive)
same,GI50,NCI-H522,> 100 µM (inactive)
same,GI50,OVCAR-8,> 100 µM (inactive)
same,GI50,U-251,> 100 µM (inactive)
same,GI50,Malme-3M,> 100 µM (inactive)
same,GI50,HOP-92,> 100 µM (inactive)
same,GI50,OVCAR-4,> 100 µM (inactive)
same,GI50,RPMI-8226,> 100 µM (inactive)
same,GI50,SW-620,> 100 µM (inactive)
same,GI50,NCI-H23,> 100 µM (inactive)
same,GI50,SK-MEL-5,> 100 µM (inactive)
same,GI50,K562,> 100 µM (inactive)
same,GI50,COLO 205,> 100 µM (inactive)
same,GI50,SK-MEL-28,> 100 µM (inactive)
same,GI50,HT-29,> 100 µM (inactive)
same,GI50,MCF7,> 100 µM (inactive)
same,GI50,RXF 393,> 100 µM (inactive)
same,GI50,HCC 2998,> 100 µM (inactive)
same,GI50,M14,> 100 µM (inactive)
